Values quoted from earlier work as cited in patent US20040096950A1, “Crystal structure of beta site APP cleaving enzyme (BACE) and methods of use thereof” (priority 2002, published 2004).
Where a SMILES comes first, the peptide text is derived from it. [ ]: non-standard residue; d: D form. The star is where a group is joined. Sta = CC(C)C[C@H](N)[C@@H](O)CC(=O)O; Isovaleryl = CC(C)CC(=O)*

Target: BACE (Homo sapiens, UniProt P56817)
Conditions: background statement, no concentration given

Chain of BACE (P56817 46-501): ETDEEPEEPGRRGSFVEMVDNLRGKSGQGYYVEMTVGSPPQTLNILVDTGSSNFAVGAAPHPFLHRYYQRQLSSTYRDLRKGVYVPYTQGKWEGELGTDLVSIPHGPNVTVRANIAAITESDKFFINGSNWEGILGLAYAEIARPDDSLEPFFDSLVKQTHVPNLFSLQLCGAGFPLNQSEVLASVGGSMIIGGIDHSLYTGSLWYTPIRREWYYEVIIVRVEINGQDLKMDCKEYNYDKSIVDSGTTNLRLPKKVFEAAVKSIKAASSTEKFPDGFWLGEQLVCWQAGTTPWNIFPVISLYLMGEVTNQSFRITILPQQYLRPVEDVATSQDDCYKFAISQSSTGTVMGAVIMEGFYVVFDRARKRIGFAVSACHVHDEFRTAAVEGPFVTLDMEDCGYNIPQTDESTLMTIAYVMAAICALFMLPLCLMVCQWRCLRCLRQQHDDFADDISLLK

CC(C)CC(=O)N[C@H](C(=O)N[C@H](C(=O)N[C@@H](CC(C)C)[C@@H](O)CC(=O)N[C@@H](C)C(=O)N[C@@H](CC(C)C)[C@@H](O)CC(=O)O)C(C)C)C(C)C [pepstatin] (Isovaleryl-VV[Sta]A[Sta]-OH)
inhibition of BACE: inhibited weakly
